{"source": "the SangsterLogP compilation"}
{"smiles": "C[C@H]1O[C@@H](O[C@H]2[C@@H](O)C[C@H](O[C@H]3[C@@H](O)C[C@H](O[C@H]4CC[C@@]5(C)[C@H](CC[C@@H]6[C@@H]5CC[C@]5(C)[C@@H](C7=CC(=O)OC7)CC[C@]65O)C4)O[C@@H]3C)O[C@@H]2C)C[C@H](O)[C@@H]1O", "logP": 3.42}
{"smiles": "CC(C)N(C(=O)COc1nnc(C(F)(F)F)s1)c1ccc(F)cc1", "logP": 3.19}
{"smiles": "CN(C)CCC=C1c2ccccc2COc2ccccc21", "logP": 3.75}
{"smiles": "C=CCc1ccccc1OC[C@@H](O)CNC(C)C", "logP": 2.63}
{"smiles": "COc1ccc(-c2ccccc2)cc1NNC(=O)OC(C)C", "logP": 3.8}
{"smiles": "CCOCn1c(-c2ccc(Cl)cc2)c(C#N)c(Br)c1C(F)(F)F", "logP": 4.61}
{"smiles": "CCCN(CCC)c1c([N+](=O)[O-])cc(C(F)(F)F)cc1[N+](=O)[O-]", "logP": 4.98}
{"smiles": "Oc1ccc(Oc2ccccc2)cc1", "logP": 3.92}
{"smiles": "CCCCOCCOCCOCc1cc2c(cc1CCC)OCO2", "logP": 4.39}
{"smiles": "CC1=C(C(=O)Nc2ccccc2)S(=O)(=O)CCO1", "logP": 1.13}
{"smiles": "CC(C)(C)c1ccc(CCOc2ncnc3ccccc23)cc1", "logP": 4.91}
{"smiles": "CON=C1C[C@]2(C[C@@H]3C[C@@H](C/C=C(\\C)C[C@@H](C)C=C/C=C4\\CO[C@@H]5[C@H](O)C(C)=C[C@@H](C(=O)O3)[C@]45O)O2)O[C@H](/C(C)=C/C(C)C)[C@H]1C", "logP": 4.99}
{"smiles": "COP(=S)(OC)SCC(=O)N(c1ccc(Cl)cc1)C(C)C", "logP": 3.8}
{"smiles": "CO/C=C(/C(=O)OC)c1ccccc1Oc1cc(Oc2ccccc2C#N)ncn1", "logP": 2.97}
{"smiles": "CC(C)C(C(=O)OC(C#N)c1cccc(Oc2ccccc2)c1)c1ccc(Cl)cc1", "note": "(stereo unspecified)", "logP": 5.71}
{"smiles": "N#Cc1c[nH]cc1-c1cccc(Cl)c1Cl", "logP": 3.78}
